Assay results published in patent publication US9580463B2 (BRISTOL-MYERS SQUIBB COMPANY, priority 2013, dated 2017).
pEC50: −log10 of the molar value. Like-named read-outs stand apart in the source and are kept apart here.

Test system: HCV genotype 1b (Con1) replicon in HUH-7 cells
Assay: HCV replicon luciferase reporter assay, genotype 1b
Format: cell-based
Settings: Hepatitis C virus, 72 h, genotype 1b replicon, 3 days incubation
Text: An HCV replicon whole cell system was established as described by Lohmann V, Korner F, Koch J, Herian U, Theilmann L, Bartenschlager R., Science 285(5424):110-3 (1999) and modified to introduce a luciferase reporter, as first described by Krieger et al (Krieger N, Lohmann V, and Bartenschlager R, J. Virol. 75(10):4614-4624 (2001)). CDNA encoding a humanized form of the Renilla luciferase gene and a linker sequence fused directly to the 3′-end of the luciferase gene were introduced into the replicon construct using an Asc1 restriction site located in core, directly upstream of the neomycin marker gene. The adaptive mutation at position 1179 (serine to isoleucine) was also introduced (Blight K J, Kolykhalov, A A, Rice, C M, Science 290(5498):1972-1974). A stable cell line constitutively expressing this HCV replicon construct was generated by first linearizing plasmid DNAs with ScaI. RNA transcripts were synthesized in vitro using the T7 MegaScript transcription kit (Ambion, Austin, Tex.) according to manufacturer's directions. In vitro transcripts of the cDNA were transfected into the human hepatoma cell line, HUH-7. […] Resulting cell lines were characterized for positive and negative strand RNA production and protein production over time. […]
HCV replicon luciferase assays were developed to monitor the inhibitory effects of compounds described in the disclosure on HCV genotypes 1a and 1b viral replication. HUH-7 cells, constitutively expressing the HCV replicon, were grown in Dulbecco's Modified Eagle Media (DMEM) (Gibco-BRL) containing 10% Fetal calf serum (FCS) (Sigma) and 1 mg/mL G418 (Gibco-BRL). Compounds were serially diluted 3 folds in DMSO for a twenty-point titration and subsequently transferred to sterile 384-well tissue-culture treated plates (Corning cat #3571). The plates were then seeded with 50 μL of cells at a density of 3.0×10^3 cells/well in DMEM containing 4% FCS (final DMSO concentration at 0.5%). After 3 days incubation at 37° C., cells were analyzed for Renilla Luciferase activity using the EnduRen as substrate (Promega cat #E6485). The EnduRen substrate was diluted in DMEM and then added to the plates to a final concentration of 7.5 μM. The plates were incubated for 2 hrs at 37° C. and then read immediately for 30 seconds with Viewlux Imager (PerkinElmer) using a luminescence program. To assess cytotoxicity of compounds, CC50 values were generated by multiplexing the EnduRen-containing plates with Cell Titer-Blue (Promega, cat # G8082). Cell-Titer Blue (3 μL) was added to each well and incubated for 8 hrs at 37° C. The fluorescence signal from each well was read, with an excitation wavelength at 525/10 nm and an emission wavelength of 598/10 nm, using the Viewlux Imager.
The EC50 values for compounds were calculated by using a four-parameter logistic equation: y=A+((B−A)/(1+((C/x)^D))), where A and B denotes minimal and maximal % inhibition, respectively, C is the EC50, D is the hill slope and x represents compound concentration.

SMILES	pEC50 (read-out: LE_1b (EC50, range))	pEC50 (read-out: LE_1b (EC50))
COC[C@@H]1C[C@H](C)CC/C=C\[C@@H]2C[C@@]2(C(=O)NS(=O)(=O)C2(C)CC2)NC(=O)[C@@H]2C[C@@H](Oc3nc(OC)c4c(OC)cccc4n3)CN2C(=O)[C@H]1NC(=O)OC(C)(C)C(C)(F)F [Compound 1062, 3,3-difluoro-2-methylbutan-2-yl ((2R,6S,7R,9R,13aS,14aR,16aS,Z)-2-((4,5-dimethoxyquinazolin-2-yl)oxy)-7-(methoxymethyl)-9-methyl-14a-(((1-methylcyclopropyl)sulfonyl)carbamoyl)-5,16-dioxo-1,2,3,5,6,7,8,9,10,11,13a,14,14a,15,16,16a-hexadecahydrocyclopropa[e]pyrrolo[1,2-a][1,4]diazacyclopentadecin-6-yl)carbamate]	8.30 to 9.00	
CCOc1cnc(O[C@@H]2C[C@H]3C(=O)N[C@]4(C(=O)NS(=O)(=O)C5(C)CC5)C[C@H]4/C=C\CC[C@@H](C)C[C@@H](COC)[C@H](NC(=O)OC(C)(C)C)C(=O)N3C2)c2ccc(OC)cc12 [Compound 1064, tert-butyl ((2R,6S,7R,9R,13aS,14aR,16aS,Z)-2-((4-ethoxy-6-methoxyisoquinolin-1-yl)oxy)-7-(methoxymethyl)-9-methyl-14a-(((1-methylcyclopropyl)sulfonyl)carbamoyl)-5,16-dioxo-1,2,3,5,6,7,8,9,10,11,13a,14,14a,15,16,16a-hexadecahydrocyclopropa[e]pyrrolo[1,2-a][1,4]diazacyclopentadecin-6-yl)carbamate]	9.30 to 10.00	
CCOc1ccc2nc(C(F)(F)F)c(O[C@@H]3C[C@H]4C(=O)N[C@]5(C(=O)NS(=O)(=O)C6(C)CC6)C[C@H]5/C=C\CC[C@@H](C)C[C@@H](COC)[C@H](NC(=O)OC(C)(C)C)C(=O)N4C3)nc2c1 [Compound 1050, tert-butyl ((2R,6S,7R,9R,13aS,14aR,16aS,Z)-2-((7-ethoxy-3-(trifluoromethyl)quinoxalin-2-yl)oxy)-7-(methoxymethyl)-9-methyl-14a-(((1-methylcyclopropyl)sulfonyl)carbamoyl)-5,16-dioxo-1,2,3,5,6,7,8,9,10,11,13a,14,14a,15,16,16a-hexadecahydrocyclopropa[e]pyrrolo[1,2-a][1,4]diazacyclopentadecin-6-yl)carbamate]	9.30 to 10.00	
COC[C@@H]1C[C@H](C)CC/C=C\[C@@H]2C[C@@]2(C(=O)NS(=O)(=O)C2(C)CC2)NC(=O)[C@@H]2C[C@@H](Oc3nc(OC)c4c(OC)cccc4n3)CN2C(=O)[C@H]1NC(=O)OC(C)(C)C [Compound 1061, tert-butyl ((2R,6S,7R,9R,13aS,14aR,16aS,Z)-2-((4,5-dimethoxyquinazolin-2-yl)oxy)-7-(methoxymethyl)-9-methyl-14a-(((1-methylcyclopropyl)sulfonyl)carbamoyl)-5,16-dioxo-1,2,3,5,6,7,8,9,10,11,13a,14,14a,15,16,16a-hexadecahydrocyclopropa[e]pyrrolo[1,2-a][1,4]diazacyclopentadecin-6-yl)carbamate]	7.46 to 8.30	
CCOc1ccc2nc(C(F)(F)F)c(O[C@@H]3C[C@H]4C(=O)N[C@]5(C(=O)NS(=O)(=O)C6(C)CC6)C[C@H]5/C=C\CC[C@H](C)C[C@@H](COC)[C@H](NC(=O)OC(C)(C)C(F)(F)F)C(=O)N4C3)nc2c1 [Compound 1053, 1,1,1-trifluoro-2-methylpropan-2-yl ((2R,6S,7R,9S,13aS,14aR,16aS,Z)-2-((7-ethoxy-3-(trifluoromethyl)quinoxalin-2-yl)oxy)-7-(methoxymethyl)-9-methyl-14a-(((1-methylcyclopropyl)sulfonyl)carbamoyl)-5,16-dioxo-1,2,3,5,6,7,8,9,10,11,13a,14,14a,15,16,16a-hexadecahydrocyclopropa[e]pyrrolo[1,2-a][1,4]diazacyclopentadecin-6-yl)carbamate]	8.30 to 9.00	
COC[C@@H]1C[C@H](C)CC/C=C\[C@@H]2C[C@@]2(C(=O)NS(=O)(=O)C2(C)CC2)NC(=O)[C@@H]2C[C@@H](Oc3nc4cc(OC(C)C)ccc4nc3C(F)(F)F)CN2C(=O)[C@H]1NC(=O)OC(C)(C)C(C)(F)F [Compound 1056, 3,3-difluoro-2-methylbutan-2-yl ((2R,6S,7R,9R,13aS,14aR,16aS,Z)-2-((7-isopropoxy-3-(trifluoromethyl)quinoxalin-2-yl)oxy)-7-(methoxymethyl)-9-methyl-14a-(((1-methylcyclopropyl)sulfonyl)carbamoyl)-5,16-dioxo-1,2,3,5,6,7,8,9,10,11,13a,14,14a,15,16,16a-hexadecahydrocyclopropa[e]pyrrolo[1,2-a][1,4]diazacyclopentadecin-6-yl)carbamate]	9.30 to 10.00	
CCOc1ccc2nc(C(F)(F)F)c(O[C@@H]3C[C@H]4C(=O)N[C@]5(C(=O)NS(=O)(=O)C6(C)CC6)C[C@H]5/C=C\CC[C@@H](C)C[C@@H](COC)[C@H](NC(=O)OC(C)(C)C(F)(F)F)C(=O)N4C3)nc2c1 [Compound 1054, 1,1,1-trifluoro-2-methylpropan-2-yl ((2R,6S,7R,9R,13aS,14aR,16aS,Z)-2-((7-ethoxy-3-(trifluoromethyl)quinoxalin-2-yl)oxy)-7-(methoxymethyl)-9-methyl-14a-(((1-methylcyclopropyl)sulfonyl)carbamoyl)-5,16-dioxo-1,2,3,5,6,7,8,9,10,11,13a,14,14a,15,16,16a-hexadecahydrocyclopropa[e]pyrrolo[1,2-a][1,4]diazacyclopentadecin-6-yl)carbamate]	9.30 to 10.00	
COC[C@@H]1C[C@H](C)CC/C=C\[C@@H]2C[C@@]2(C(=O)NS(=O)(=O)C2(C)CC2)NC(=O)[C@@H]2C[C@@H](Oc3nc4cc(OC)c(F)cc4nc3C(F)(F)F)CN2C(=O)[C@H]1NC(=O)OC(C)(C)C(F)(F)F [Compound 1048, 1,1,1-trifluoro-2-methylpropan-2-yl ((2R,6S,7R,9R,13aS,14aR,16aS,Z)-2-((6-fluoro-7-methoxy-3-(trifluoromethyl)quinoxalin-2-yl)oxy)-7-(methoxymethyl)-9-methyl-14a-(((1-methylcyclopropyl)sulfonyl)carbamoyl)-5,16-dioxo-1,2,3,5,6,7,8,9,10,11,13a,14,14a,15,16,16a-hexadecahydrocyclopropa[e]pyrrolo[1,2-a][1,4]diazacyclopentadecin-6-yl)carbamate]	9.30 to 10.00	9.57
CCOc1cnc(O[C@@H]2C[C@H]3C(=O)N[C@]4(C(=O)NS(=O)(=O)C5(C)CC5)C[C@H]4/C=C\CC[C@H](C)C[C@@H](COC)[C@H](NC(=O)OC(C)(C)C)C(=O)N3C2)c2ccc(OC)cc12 [Compound 1063, tert-butyl ((2R,6S,7R,9S,13aS,14aR,16aS,Z)-2-((4-ethoxy-6-methoxyisoquinolin-1-yl)oxy)-7-(methoxymethyl)-9-methyl-14a-(((1-methylcyclopropyl)sulfonyl)carbamoyl)-5,16-dioxo-1,2,3,5,6,7,8,9,10,11,13a,14,14a,15,16,16a-hexadecahydrocyclopropa[e]pyrrolo[1,2-a][1,4]diazacyclopentadecin-6-yl)carbamate]	9.30 to 10.00	
